Reference: patent publication US20210045385A1, “PYRIDAZINONE-SUBSTITUTED KETOXIMES AS HERBICIDES” (FMC Corporation, priority 2018, published 2021)

Key:
Assay type in all cases: in vivo
[1] = tested on: barnyardgrass (Echinochloa crus-galli); experiment: Test A preemergence, visual plant response rating; conditions: for Barnyardgrass plant response rating: 125 g ai/ha, preemergence, 0 to 100 scale, 0 no effect, 100 complete control; for Barnyardgrass plant response rating (0 to 100 scale): 500 g ai/ha Preemergence, approx. 10 days
Outline: (§1)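 Formulated in a non-phytotoxic solvent mixture including surfactant, each test chemical was sprayed onto the soil surface after sowing, or onto seedlings 2 to 10 cm high. Roughly 10 days later, plants were compared with untreated controls and rated for injury from 0 (no effect) to 100 (complete control).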

[2] = tested on: foxtail, giant (giant foxtail, Setaria faberii); experiment: Test A preemergence, visual plant response rating; conditions: for Foxtail, Giant plant response rating: 125 g ai/ha, preemergence, 0 to 100 scale, 0 no effect, 100 complete control; for Foxtail, Giant plant response rating (0 to 100 scale): 500 g ai/ha Preemergence, approx. 10 days
Outline: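 Greenhouse pot test in loam–sand soil mix: compound in a surfactant-containing non-phytotoxic solvent applied preemergence (directed soil spray) or postemergence (one- to two-leaf plants, 2–10 cm). Injury scored visually after ~10 days, 0–100.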

[3] = tested on: Italian ryegrass (Lolium multiflorum); experiment: Test A preemergence, visual plant response rating; conditions: for Ryegrass, Italian plant response rating: 125 g ai/ha, preemergence, 0 to 100 scale, 0 no effect, 100 complete control; for Ryegrass, Italian plant response rating (0 to 100 scale): 500 g ai/ha Preemergence, approx. 10 days
Outline: as §1

kochia (Kochia scoparia) [4] = experiment: Test A preemergence, visual plant response rating; conditions: for Kochia plant response rating: 125 g ai/ha, preemergence, 0 to 100 scale, 0 no effect, 100 complete control; for Kochia plant response rating (0 to 100 scale): 500 g ai/ha Preemergence, approx. 10 days
Outline: as §1

[5] = tested on: ragweed (common ragweed, Ambrosia elatior); experiment: Test A preemergence, visual plant response rating; conditions: for Ragweed plant response rating: 125 g ai/ha, preemergence, 0 to 100 scale, 0 no effect, 100 complete control; for Ragweed plant response rating (0 to 100 scale): 500 g ai/ha Preemergence, approx. 10 days
Outline: as §1

[6] = tested on: pigweed (Amaranthus retroflexus); experiment: Test A preemergence, visual plant response rating; conditions: for Pigweed plant response rating: 125 g ai/ha, preemergence, 0 to 100 scale, 0 no effect, 100 complete control; for Pigweed plant response rating (0 to 100 scale): 500 g ai/ha Preemergence, approx. 10 days
Outline: as §1

[7] = tested on: barnyardgrass (Echinochloa crus-galli); experiment: Test A postemergence, visual plant response rating; conditions: for Barnyardgrass plant response rating (0 to 100 scale): 500 g ai/ha, postemergence, 0 is no effect, 100 is complete control; for Barnyardgrass plant response rating: Postemergence, 125 g ai/ha, 0 to 100 scale (0 no effect, 100 complete control)
Outline: as §1

[8] = tested on: galium (catchweed bedstraw, Galium aparine); experiment: Test A postemergence, visual plant response rating; conditions: for Galium plant response rating (0 to 100 scale): 500 g ai/ha, postemergence, 0 is no effect, 100 is complete control; for Galium plant response rating: Postemergence, 125 g ai/ha, 0 to 100 scale (0 no effect, 100 complete control)
Outline: as §1

[9] = tested on: blackgrass (Alopecurus myosuroides); experiment: Test A postemergence, visual plant response rating; conditions: for Blackgrass plant response rating (0 to 100 scale): 500 g ai/ha, postemergence, 0 is no effect, 100 is complete control; for Blackgrass plant response rating: Postemergence, 125 g ai/ha, 0 to 100 scale (0 no effect, 100 complete control)
Outline: as §1

[10] = tested on: foxtail, giant (giant foxtail, Setaria faberii); experiment: Test A postemergence, visual plant response rating; conditions: for Foxtail, Giant plant response rating (0 to 100 scale): 500 g ai/ha, postemergence, 0 is no effect, 100 is complete control; for Foxtail, Giant plant response rating: Postemergence, 125 g ai/ha, 0 to 100 scale (0 no effect, 100 complete control)
Outline: as §1

[11] = tested on: Italian ryegrass (Lolium multiflorum); experiment: Test A postemergence, visual plant response rating; conditions: for Ryegrass, Italian plant response rating (0 to 100 scale): 500 g ai/ha, postemergence, 0 is no effect, 100 is complete control; for Ryegrass, Italian plant response rating: Postemergence, 125 g ai/ha, 0 to 100 scale (0 no effect, 100 complete control)
Outline: as §1

kochia (Kochia scoparia) [12] = experiment: Test A postemergence, visual plant response rating; conditions: for Kochia plant response rating (0 to 100 scale): 500 g ai/ha, postemergence, 0 is no effect, 100 is complete control; for Kochia plant response rating: Postemergence, 125 g ai/ha, 0 to 100 scale (0 no effect, 100 complete control)
Outline: as §1

corn (Zea mays) = experiment: Test A postemergence, visual plant response rating; conditions: for Corn plant response rating (0 to 100 scale): 500 g ai/ha, postemergence, 0 is no effect, 100 is complete control; for Corn plant response rating: Postemergence, 125 g ai/ha, 0 to 100 scale (0 no effect, 100 complete control)
Outline: as §1

[13] = tested on: ragweed (common ragweed, Ambrosia elatior); experiment: Test A postemergence, visual plant response rating; conditions: for Ragweed plant response rating (0 to 100 scale): 500 g ai/ha, postemergence, 0 is no effect, 100 is complete control; for Ragweed plant response rating: Postemergence, 125 g ai/ha, 0 to 100 scale (0 no effect, 100 complete control)
Outline: as §1

[14] = tested on: wheat (Triticum aestivum); experiment: Test A postemergence, visual plant response rating; conditions: for Wheat plant response rating (0 to 100 scale): 500 g ai/ha, postemergence, 0 is no effect, 100 is complete control; for Wheat plant response rating: Postemergence, 125 g ai/ha, 0 to 100 scale (0 no effect, 100 complete control)
Outline: as §1

[15] = tested on: pigweed (Amaranthus retroflexus); experiment: Test A postemergence, visual plant response rating; conditions: for Pigweed plant response rating (0 to 100 scale): 500 g ai/ha, postemergence, 0 is no effect, 100 is complete control; for Pigweed plant response rating: Postemergence, 125 g ai/ha, 0 to 100 scale (0 no effect, 100 complete control)
Outline: as §1

[16] = tested on: sedge, umbrella (small-flower umbrella sedge, Cyperus difformis); experiment: Test B flooded paddy test, visual plant response rating; conditions: 250 g ai/ha, Flood, applied to paddy water, 2-leaf stage, evaluated after 13 to 15 days
Outline: (§2)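 Rice, umbrella sedge, ducksalad and barnyardgrass grown to 2-leaf stage; pots flooded 3 cm above soil and compound applied directly to paddy water, depth maintained.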

[17] = tested on: barnyardgrass (Echinochloa crus-galli); experiment: as above; conditions: 250 g ai/ha, Flood, applied to paddy water, 2-leaf stage, evaluated after 13 to 15 days
Outline: as §2

rice (Oryza sativa) = experiment: as above; conditions: 250 g ai/ha, Flood, applied to paddy water, 2-leaf stage, evaluated after 13 to 15 days
Outline: as §2

[18] = tested on: ducksalad (Heteranhera limosa); experiment: as above; conditions: 250 g ai/ha, Flood, applied to paddy water, 2-leaf stage, evaluated after 13 to 15 days
Outline: as §2

Compound | Barnyardgrass plant response rating [1] | Barnyardgrass plant response rating (0 to 100 scale) [1] | Foxtail, Giant plant response rating [2] | Foxtail, Giant plant response rating (0 to 100 scale) [2] | Ryegrass, Italian plant response rating [3] | Ryegrass, Italian plant response rating (0 to 100 scale) [3] | Kochia plant response rating (kochia (Kochia scoparia) [4]) | Kochia plant response rating (0 to 100 scale) (kochia (Kochia scoparia) [4]) | Ragweed plant response rating [5] | Ragweed plant response rating (0 to 100 scale) [5] | Pigweed plant response rating [6] | Pigweed plant response rating (0 to 100 scale) [6] | Barnyardgrass plant response rating (0 to 100 scale) [7] | Barnyardgrass plant response rating [7] | Galium plant response rating (0 to 100 scale) [8] | Galium plant response rating [8] | Blackgrass plant response rating (0 to 100 scale) [9] | Blackgrass plant response rating [9] | Foxtail, Giant plant response rating (0 to 100 scale) [10] | Foxtail, Giant plant response rating [10] | also measured
C#CCO/N=C(\c1c(O)c(C)nn(C)c1=O)c1ccc(F)c2ccccc12 [Compound 108, 4-[(Z)-(4-fluoro-1-naphthalenyl)(2-propyn-1-yloxy)imino]methyl-5-hydroxy-2,6-dimethyl-3(2H)-pyridazinone] | 90 | 100 | 100 | 100 | 100 | 100 | 50 | 100 | 90 | 100 | 100 | 100 | 90 | 90 | 100 | 100 | 100 | 100 | 90 | 80 | Ryegrass, Italian plant response rating (0 to 100 scale) [11]: 100; Ryegrass, Italian plant response rating [11]: 100; Kochia plant response rating (0 to 100 scale) (kochia (Kochia scoparia) [12]): 80; Kochia plant response rating (kochia (Kochia scoparia) [12]): 60; Corn plant response rating (0 to 100 scale) (corn (Zea mays)): 80; Corn plant response rating (corn (Zea mays)): 30; Ragweed plant response rating (0 to 100 scale) [13]: 100; Ragweed plant response rating [13]: 80; Wheat plant response rating (0 to 100 scale) [14]: 80; Wheat plant response rating [14]: 70; Pigweed plant response rating (0 to 100 scale) [15]: 100; Pigweed plant response rating [15]: 90; Plant response rating, Sedge, Umbrella (0 to 100 scale, 0 is no effect, 100 is complete control) [16]: 0; Plant response rating, Barnyardgrass (0 to 100 scale, 0 is no effect, 100 is complete control) [17]: 0; Plant response rating, Rice (0 to 100 scale, 0 is no effect, 100 is complete control) (rice (Oryza sativa)): 0; Plant response rating, Ducksalad (0 to 100 scale, 0 is no effect, 100 is complete control) [18]: 0
C#CCO/N=C(/c1c(O)c(C)nn(C)c1=O)c1ccc(F)c2ccccc12 [Compound 109, 4-[(E)-(4-fluoro-1-naphthalenyl)[(2-propyn-1-yloxy)imino]methyl]-5-hydroxy-2,6-dimethyl-3(2H)-pyridazinone] | 90 | 100 | 100 | 100 | 100 | 100 | 10 | 50 | 90 | 100 | 100 | 100 | 90 | 90 | 100 | 100 | 100 | 90 | 90 | 80 | Ryegrass, Italian plant response rating (0 to 100 scale) [11]: 100; Ryegrass, Italian plant response rating [11]: 100; Kochia plant response rating (0 to 100 scale) (kochia (Kochia scoparia) [12]): 90; Kochia plant response rating (kochia (Kochia scoparia) [12]): 70; Corn plant response rating (0 to 100 scale) (corn (Zea mays)): 70; Corn plant response rating (corn (Zea mays)): 20; Ragweed plant response rating (0 to 100 scale) [13]: 90; Ragweed plant response rating [13]: 80; Wheat plant response rating (0 to 100 scale) [14]: 90; Wheat plant response rating [14]: 90; Pigweed plant response rating (0 to 100 scale) [15]: 100; Pigweed plant response rating [15]: 90; Plant response rating, Sedge, Umbrella (0 to 100 scale, 0 is no effect, 100 is complete control) [16]: 60; Plant response rating, Barnyardgrass (0 to 100 scale, 0 is no effect, 100 is complete control) [17]: 50; Plant response rating, Rice (0 to 100 scale, 0 is no effect, 100 is complete control) (rice (Oryza sativa)): 45; Plant response rating, Ducksalad (0 to 100 scale, 0 is no effect, 100 is complete control) [18]: 40
CON=C(c1c(O)c(C)nn(C)c1=O)c1cccc2ccc(Cl)cc12 [Compound 110] | 70 | 80 | 60 | 100 | 60 | 70 | 0 | 10 | 40 | 90 | 50 | 100 | 70 | 50 | 100 | 90 | 90 | 90 | 90 | 50 | Ryegrass, Italian plant response rating (0 to 100 scale) [11]: 80; Ryegrass, Italian plant response rating [11]: 30; Kochia plant response rating (0 to 100 scale) (kochia (Kochia scoparia) [12]): 60; Kochia plant response rating (kochia (Kochia scoparia) [12]): 50; Corn plant response rating (0 to 100 scale) (corn (Zea mays)): 30; Corn plant response rating (corn (Zea mays)): 10; Ragweed plant response rating (0 to 100 scale) [13]: 90; Ragweed plant response rating [13]: 60; Wheat plant response rating (0 to 100 scale) [14]: 0; Wheat plant response rating [14]: 0; Pigweed plant response rating (0 to 100 scale) [15]: 100; Pigweed plant response rating [15]: 90; Plant response rating, Sedge, Umbrella (0 to 100 scale, 0 is no effect, 100 is complete control) [16]: 0; Plant response rating, Barnyardgrass (0 to 100 scale, 0 is no effect, 100 is complete control) [17]: 0; Plant response rating, Rice (0 to 100 scale, 0 is no effect, 100 is complete control) (rice (Oryza sativa)): 0; Plant response rating, Ducksalad (0 to 100 scale, 0 is no effect, 100 is complete control) [18]: 0
CON=C(c1c(O)c(C)nn(C)c1=O)c1cccc2ccc(Cl)cc12 [Compound 111] | 60 | 70 | 50 | 90 | 30 | 70 | 20 | 100 | 70 | 100 | 100 | 100 | 80 | 50 | 90 | 80 | 100 | 80 | 70 | 60 | Ryegrass, Italian plant response rating (0 to 100 scale) [11]: 90; Ryegrass, Italian plant response rating [11]: 70; Kochia plant response rating (0 to 100 scale) (kochia (Kochia scoparia) [12]): 60; Kochia plant response rating (kochia (Kochia scoparia) [12]): 40; Corn plant response rating (0 to 100 scale) (corn (Zea mays)): 30; Corn plant response rating (corn (Zea mays)): 20; Ragweed plant response rating (0 to 100 scale) [13]: 80; Ragweed plant response rating [13]: 80; Wheat plant response rating (0 to 100 scale) [14]: 60; Wheat plant response rating [14]: 0; Pigweed plant response rating (0 to 100 scale) [15]: 90; Pigweed plant response rating [15]: 60; Plant response rating, Sedge, Umbrella (0 to 100 scale, 0 is no effect, 100 is complete control) [16]: 0; Plant response rating, Barnyardgrass (0 to 100 scale, 0 is no effect, 100 is complete control) [17]: 0; Plant response rating, Rice (0 to 100 scale, 0 is no effect, 100 is complete control) (rice (Oryza sativa)): 0; Plant response rating, Ducksalad (0 to 100 scale, 0 is no effect, 100 is complete control) [18]: 0
